The text below walks through data of article PMC6295231 (Clinical cancer research : an official journal of the …, 2018).

In data set [1] the test system is ELK1-dependent promoter activation by AR. In words: primary screening assay. In kind it is cell-based. As to conditions: for IC50: Homo sapiens, HeLa, read-out: IC50 for inhibition of ELK1-dependent promoter activation by AR; for IC50 for inhibition of ELK1-dependent promoter activation by AR: primary screening assay, compound dose range of 1-10μM.
For data set [2], the system named is activation of ELK1 by MEK/ERK. In kind it is cell-based. As to conditions: HeLa cells co-transfected.
Data set [3] deals with association of AR with ELK1 (Homo sapiens, UniProt P10275). In words: BRET assay of association of ELK1 with AR in HEK293T cells. The format is cell-based. As to conditions: pre-incubation.
A further data set concerns the target T1, purified human AR (Homo sapiens, UniProt P10275).
T1 sequence (P10275 1-920): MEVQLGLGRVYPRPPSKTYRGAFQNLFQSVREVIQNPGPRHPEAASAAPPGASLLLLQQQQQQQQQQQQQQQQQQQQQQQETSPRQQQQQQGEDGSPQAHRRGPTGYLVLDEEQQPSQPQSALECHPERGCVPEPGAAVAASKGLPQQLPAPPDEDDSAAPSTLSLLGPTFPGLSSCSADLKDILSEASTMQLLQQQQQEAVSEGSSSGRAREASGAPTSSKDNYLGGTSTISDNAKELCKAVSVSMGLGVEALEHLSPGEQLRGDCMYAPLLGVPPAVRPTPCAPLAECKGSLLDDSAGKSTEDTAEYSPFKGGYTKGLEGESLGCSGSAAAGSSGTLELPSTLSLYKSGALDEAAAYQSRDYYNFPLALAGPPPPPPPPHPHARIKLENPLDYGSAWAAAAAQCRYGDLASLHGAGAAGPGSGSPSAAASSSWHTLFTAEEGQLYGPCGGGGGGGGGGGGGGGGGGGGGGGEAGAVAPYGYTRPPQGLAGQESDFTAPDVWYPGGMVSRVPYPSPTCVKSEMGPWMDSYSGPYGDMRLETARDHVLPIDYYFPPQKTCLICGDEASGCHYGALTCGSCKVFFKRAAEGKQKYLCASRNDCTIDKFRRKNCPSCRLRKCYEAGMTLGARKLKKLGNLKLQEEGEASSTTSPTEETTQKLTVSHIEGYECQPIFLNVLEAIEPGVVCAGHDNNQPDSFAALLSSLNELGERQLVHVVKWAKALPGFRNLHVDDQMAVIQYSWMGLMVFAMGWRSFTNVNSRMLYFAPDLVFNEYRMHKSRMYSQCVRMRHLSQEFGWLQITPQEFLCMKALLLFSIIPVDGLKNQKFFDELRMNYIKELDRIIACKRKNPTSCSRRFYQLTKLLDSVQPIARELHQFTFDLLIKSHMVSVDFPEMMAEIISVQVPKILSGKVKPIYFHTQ
Kind of data set: surface plasmon resonance, binding to immobilized AR. As to conditions: for Kd: dissociation constant (Kd) for binding to AR, SPR, AR immobilized.

A further data set deals with ELK1 (Homo sapiens, UniProt P19419). Kind of data set: surface plasmon resonance, binding to immobilized ELK1. As to conditions: SPR. For orientation: SPR reads the build-up and loss of mass on a sensor chip optically.
Sequence of ELK1 (P19419 whole entry): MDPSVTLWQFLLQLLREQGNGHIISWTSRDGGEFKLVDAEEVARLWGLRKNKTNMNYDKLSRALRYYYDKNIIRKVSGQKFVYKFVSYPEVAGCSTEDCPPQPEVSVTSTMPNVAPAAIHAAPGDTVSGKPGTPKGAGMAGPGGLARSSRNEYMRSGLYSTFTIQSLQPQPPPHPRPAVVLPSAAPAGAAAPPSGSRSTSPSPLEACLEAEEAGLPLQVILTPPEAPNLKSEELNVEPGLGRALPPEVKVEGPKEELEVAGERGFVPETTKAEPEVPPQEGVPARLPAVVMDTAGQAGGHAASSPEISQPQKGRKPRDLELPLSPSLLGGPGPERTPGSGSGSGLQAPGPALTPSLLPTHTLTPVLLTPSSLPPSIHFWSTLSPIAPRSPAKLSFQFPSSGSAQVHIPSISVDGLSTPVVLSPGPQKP
For another data set, the target named is binding of AR to ELK1 (Homo sapiens, UniProt P10275). Kind of data set: SPR competition: binding of AR. As to conditions: AR 200 nM.
Data set [4] concerns AR recruitment to chromatin in LNCaP cells. In words: chromatin immunoprecipitation. In kind it is cell-based. As to conditions: R1881 10nM + KCI807 20uM, 2h.
For the next data set, the system named is AR-V7. In words: hormone-independent promoter activation by AR-V7. The format is cell-based. As to conditions: relatively higher concentrations required.
The subject of data set [5] is AR target genes in 22Rv1 cells. In words: real time RT-PCR of AR target genes in 22Rv1 cells. The format is cell-based. As to conditions: 10 µM, 72h.
Data set [6] concerns DU145 (prostate cancer cells). In words: growth of AR-negative cells, DU145. The format is cell-based.
Data set [7] deals with HeLa (cervical cancer cells). Kind of data set: growth of AR-negative cells, HeLa. The format is cell-based.
The test system of data set [8] is HEK293 (adenovirus transformed kidney fibroblasts). In words: growth of AR-negative cells, HEK293. In kind it is cell-based.
Data set [9] has as its system H1650 (lung adenocarcinoma cells). In words: growth of AR-negative cells, H1650. The format is cell-based.
For data set [10], the system named is AR or AR-V7 protein level. In words: protein level of AR / AR-V7 in PC/CRPC cell lines. In kind it is cell-based.
For data set [11] the following is noted: mouse, in vivo.
The nature of another data set: in vivo. As to conditions: SCID, mouse.
In the next data set the test system is VCaP cells. In words: MTT growth assay, VCaP. As to conditions: androgen-dependent cells.
The next data set relates to 22Rv1 cells. In words: MTT growth assay, 22Rv1. As to conditions: androgen-independent cells; up to 20 uM. In general terms: Tetrazolium dyes change colour on reduction, which living cells bring about.
A further data set concerns LNCaP cells. Kind of data set: MTT growth assay, LNCaP. As to conditions: androgen-dependent cells; up to 20 uM.
The subject of another data set is 22Rv1 CRPC cells. In words: colony formation assay, 22Rv1.
Data set [12] in a line: plasma/serum levels and metabolites of KCI807 by LC-MS/MS. As to conditions: mice, 250 mg/kg IP alternate days, 6h after last injection.
The test system of data set [13] is PDX-PR011 tumor xenograft. In words: PDX-PR011 patient-derived tumor xenograft in male SCID mice. As to conditions: for tumor growth, PDX-PR011 xenograft: treatment from Day 1 after implantation. Background: In xenograft studies the graft and the host belong to different species.
The test system of data set [14] is ARE-dependent promoter activation by AR. Kind of data set: counter screening assay. In kind it is cell-based. As to conditions: words.
For data set [15] the following is noted: easily oxidized; ref [33], [34]; cited from earlier work.
For a further data set, the target named is ELK1 (Homo sapiens) (UniProt P19419). As to conditions: cited from earlier work.
Sequence of ELK1 (Homo sapiens) (P19419 whole entry): as above

The IC50 is the concentration that inhibits the measured activity by half. Broadly, the Kd is the free concentration of one partner at which half of the binding sites on the other are occupied at equilibrium, for simple one-to-one binding. By half-life is commonly meant how long it takes for the measured level to halve. A lower half-life goes with rapid decline. `O=c1cc(-c2cccc(O)c2)oc2cccc(O)c12` [KCI807, 5,3’-Dihydroxyflavone]: the IC50 in data set [1] was 530 nM. Also, the “inhibition of luciferase reporter activation by MEK1 (caMEK1, Gal4-ELK1)” value in data set [2] is listed as “did not inhibit”. Moreover, the “BRET coupling between ELK1 and AR” value in data set [3] was “inhibited”. For the same molecule, on purified human AR (ELK1-AR value ref [25]), the “dissociation constant for AR relative to that for binding of ELK1 to AR” value is recorded as ~ 3 times. Binding at purified human AR was characterised by a dissociation constant (Kd) of 69.2 nM. In addition, the “binding to immobilized ELK1” value on ELK1 was “did not bind”. The “blocking of binding of purified AR (analyte) to immobilized ELK1” value at binding of AR to ELK1 was “blocked binding”. Besides, in data set [4], the “AR recruitment at canonical ARE enhancer sites (KLK3, TMPRSS2)” value is “did not impede” and the “association of AR with chromatin sites at which ELK1 recruits AR” value was “prevented association”. Besides, the “hormone-independent promoter activation by splice variant AR-V7” value with AR-V7 is reported as “inhibited”. For the same molecule, the “expression of AR target genes (mRNA)” value in data set [5] was “decreased expression of only the genes known to be supported synergistically by ELK1 and AR”. Also, in data set [6], the “growth of DU145 cells” value is on record as “did not appreciably affect”. In data set [7], the “growth of HeLa cells” value is on record as “did not appreciably affect”. In addition, the “growth of HEK293 cells” value in [8] is on record as “did not appreciably affect”. The “growth of H1650 cells” value in [9] is given as “did not appreciably affect”. Besides, in data set [10], the “expression of AR or AR-V7 proteins” value is recorded as “does not affect”. Besides, in [11], the “immediate and peri-acute post-injection toxicity (dose determination)” value was “asymptomatic post all doses given”. This molecule also gave a half-life in “in vivo” of 6 h. Moreover, the “cell growth inhibition, MTT, VCaP” value in the data set on VCaP cells is on record as “most sensitive”. For the same molecule, the “cell growth inhibition, MTT, 22Rv1” value in the data set with 22Rv1 cells was “completely inhibited cell growth”. For the same molecule, in the data set with LNCaP cells, the “cell growth inhibition, MTT, LNCaP” value is “completely inhibited cell growth”. For the same molecule, the “concentration beyond which colony growth was virtually completely inhibited” value in the data set with 22Rv1 CRPC cells is listed as > 125 nM. Moreover, in data set [12], the “plasma level of unmetabolized compound (median), Day 11” value was determined as 387 nM and the “plasma level of unmetabolized compound (median), Day 19” value was 70 nM. Besides, in data set [13] (mouse, in vivo), the “symptoms during PDX-PR011 study” value was “asymptomatic” and the “weight loss during PDX-PR011 study” value is recorded as “did not show appreciable weight loss”. Besides, the “tumor growth, PDX-PR011 xenograft” value in data set [13] was “significantly inhibited”.
Consider `O=c1cc(-c2ccc(O)cc2)oc2cc(O)ccc12` [7,4’-Dihydroxyflavone], for which, in [1], the “IC50 for inhibition of ELK1-dependent promoter activation by AR” value (from here on “IC50 for inhibition”) is on record as “No effect”.
On the same count and under the same terms, in the case of `COc1c(-c2ccc(O)c(O)c2)oc2cc(O)cc(O)c2c1=O` [5,7,3’,4’-Tetrahydroxy-3-methoxyflavone] it was “No effect”.
As usually defined, the inhibition is how much of the control response was suppressed. Consider `O=c1cc(-c2ccc(O)c(O)c2)oc2cc(O)cc(O)c12` [Hit 1, 5,7,3’,4’-Tetrahydroxyflavone], for which the IC50 in [1] is 1010 nM. In addition, the inhibition at 10 µM in data set [1] (Mus musculus, MIN6, 6 h, read-out: inhibition in the primary screen) lay in the range of 80 to 100%. Further, the “effect on ARE-dependent promoter activation by AR (counter screen)” value in data set [14] is given as “virtual absence of an effect”. For the same molecule, the stability in vitro result in data set [15] was “highly unstable”.
For the molecule `O=c1cc(-c2cccc(O)c2)oc2cc(O)ccc12` [7,3’-Dihydroxyflavone], the “IC50 for inhibition” value in data set [1] is on record as “No effect”.
Turning to `O=c1cc(-c2cccc(O)c2)oc2ccccc12` [3’-Hydroxyflavone], the “IC50 for inhibition” value in [1] is given as “No effect”. On purified human AR, this molecule showed a Kd of 1430 nM.
Take `COc1cc(OC)c2c(=O)cc(-c3ccc(OC)c(OC)c3)oc2c1` [5,7,3’,4’-Tetramethoxyflavone]: in [1], the “IC50 for inhibition” value was “No effect”.
`O=c1cc(-c2ccc(O)c(O)c2)oc2ccccc12` [3’.4’-Dihydroxyflavone]: the “IC50 for inhibition” value in data set [1] is listed as “No effect”.
`COc1ccc(-c2cc(=O)c3c(O)c(OC)c(OC)cc3o2)cc1O` [5,3’-Dihydroxy-6,7,4’-trimethoxyflavone]: the IC50 in data set [1] amounted to 4170 nM.
Consider `O=c1cc(-c2ccccc2)oc2cc(O)cc(O)c12` [5.7-Dihydroxyflavone], for which the “IC50 for inhibition” value in [1] was “No effect”.
Take `CNC(=O)c1ccc(N2C(=S)N(c3ccc(C#N)c(C(F)(F)F)c3)C(=O)C2(C)C)cc1F` [enzalutamide, reference compound]: the “cell growth inhibition, MTT, VCaP” value in the data set with VCaP cells is recorded as “most sensitive”. The “cell growth inhibition, MTT, 22Rv1” value with 22Rv1 cells is recorded as “only showed partial effects”. The “cell growth inhibition, MTT, LNCaP” value in the data set with LNCaP cells is given as “only showed partial effects”. The “tumor growth, PDX-PR011 xenograft” value in data set [13] is listed as “insensitive”.
`O=c1cc(-c2ccc(O)cc2)oc2cccc(O)c12` [5,4’-Dihydroxyflavone]: the IC50 in data set [1] turned out to be 5480 nM.
Same read-out and setting: the same measure for `O=c1cc(-c2ccc(O)c(O)c2)oc2cccc(O)c12` [5,3’,4’-Trihydroxyflavone]: 1010 nM.
Consider `COc1cc(-c2cc(=O)c3c(O)cc(O)cc3o2)ccc1O` [5,7,4’-Trihydroxy-3’-methoxyflavone], for which, in data set [1], the “IC50 for inhibition” value is on record as “No effect”.
For `O=c1cc(-c2ccc(O)c(O)c2)oc2cc(O)ccc12` [7,3’,4’-Trihydroxyflavone], in data set [1], the “IC50 for inhibition” value is “No effect”.
For the molecule `CC(=O)Nc1cccc(-n2c(=O)n(C3CC3)c(=O)c3c(Nc4ccc(I)cc4F)n(C)c(=O)c(C)c32)c1` [trametinib, reference compound], the “inhibition of luciferase reporter activation by MEK1 (caMEK1, Gal4-ELK1)” value in data set [2] is on record as “completely inhibited”.
In the case of `O=c1cc(-c2ccccc2)oc2cccc(O)c12` [5-Hydroxyflavone], the IC50 in data set [1] is > 10000 nM.
For AR (from UniProt P10275), the Kd with ELK1 (Homo sapiens) was 20 nM.
With `COc1ccc(-c2cc(=O)c3c(O)cc(O)cc3o2)cc1O` [5,7,3’-Trihydroxy-4’-methoxyflavone], the IC50 in data set [1] came out at 1370 nM.
